# In publication PMC4159591, “Crystal structure of an HD‐GYP domain cyclic‐di‐GMP phosphodiesterase reveals an enzyme with a novel trinuclear catalytic iron centre” (Molecular Microbiology, 2013):
# How the values were obtained:
# [1] = biological target: T1, PmGH (Persephonella marina, UniProt C0QQ26, C41A/E185A/C197A); assay: HPLC phosphodiesterase assay; type: biochemical; details: 100 uM c-di-GMP, pH 7.6, 10 mM MgCl2, 10 mM MnCl2, 0.5 mM EDTA, 37 C
# T1 construct: gene PERMA_0986; GAF + HD-GYP domains; synthetic gene in pET47b, E. coli BL21(DE3); N-terminal His6 tag cut with HRV 3C; homodimer; tri-iron centre
# [2] = biological target: T2, PmGH (Persephonella marina, UniProt C0QQ26, C41A/C197A/D305A); assay: HPLC phosphodiesterase assay; type: biochemical; details: 100 uM c-di-GMP, pH 7.6, 10 mM MgCl2, 10 mM MnCl2, 0.5 mM EDTA, 37 C
# T2 construct: gene PERMA_0986; GAF + HD-GYP domains; synthetic gene in pET47b, E. coli BL21(DE3); N-terminal His6 tag cut with HRV 3C; homodimer; tri-iron centre
# [3] = biological target: T3, PmGH (Persephonella marina, UniProt C0QQ26, C41A/C197A); assay: X-ray crystal structure (crystal soak), […] A; hydrolysis in solution shown by HPLC; type: binding; details: crystals soaked with 25 mM c-di-GMP and 100 mM EDTA; only G-site Fe bound; bound to monomer B only, HD-GYP active site
# T3 construct: gene PERMA_0986; GAF + HD-GYP domains; synthetic gene in pET47b, E. coli BL21(DE3); N-terminal His6 tag cut with HRV 3C; homodimer; tri-iron centre
# [4] = biological target: GAF/HD-GYP protein from Persephonella marina EX-H1 (PmGH) (Persephonella marina EX-H1) (UniProt C0QQ26); assay: crystal structure; hanging drop vapour diffusion, 0.1 M MES pH 6.5, 0.9 M succinic acid, 2% PEG 2000; space group I222 with one dimer in the asymmetric unit; native structure at 2.03 Å
# [5] = biological target: T3, PmGH; assay: X-ray crystal structure (crystal soak), […] A; type: binding; details: crystals soaked with 30 mM GMP; tri-iron centre intact; active site, phosphate bridges M and H iron sites; monomer B only
# T3 sequence (C0QQ26 entry or part of it C41A/C197A): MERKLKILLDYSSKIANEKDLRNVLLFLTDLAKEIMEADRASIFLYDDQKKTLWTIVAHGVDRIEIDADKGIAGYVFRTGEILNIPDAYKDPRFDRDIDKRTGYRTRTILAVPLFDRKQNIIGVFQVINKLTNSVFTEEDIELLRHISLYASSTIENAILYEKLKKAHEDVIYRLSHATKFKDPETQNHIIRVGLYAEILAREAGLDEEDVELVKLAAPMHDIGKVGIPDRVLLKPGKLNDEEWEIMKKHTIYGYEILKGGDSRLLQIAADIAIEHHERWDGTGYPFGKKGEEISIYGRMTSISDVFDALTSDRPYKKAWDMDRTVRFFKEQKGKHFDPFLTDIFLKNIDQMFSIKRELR
# T1 sequence (C0QQ26 entry or part of it C41A/E185A/C197A): as the sequence (C0QQ26 entry or part of it C41A/C197A) above, with E185A counted along it
# T2 sequence (C0QQ26 entry or part of it C41A/C197A/D305A): as the sequence (C0QQ26 entry or part of it C41A/C197A) above, with D305A counted along it
compound,measurement,setting,value
Nc1nc2c(ncn2[C@@H]2O[C@@H]3COP(=O)(O)O[C@H]4[C@@H](O)[C@H](n5cnc6c(=O)[nH]c(N)nc65)O[C@@H]4COP(=O)(O)O[C@H]3[C@H]2O)c(=O)[nH]1 [c-di-GMP],c-di-GMP hydrolysis,[1],"marked reduction in their ability to hydrolyse c‐di‐GMP, hydrolysis of c‐di‐GMP is still detected"
same,c-di-GMP hydrolysis,[2],"marked reduction in their ability to hydrolyse c‐di‐GMP, hydrolysis of c‐di‐GMP is still detected"
same,"X-ray crystal structure (crystal soak), 2.68 A; hydrolysis in solution shown by",[3],revealed well defined difference electron density for a bound c‐di‐GMP molecule at the active site
GAF/HD-GYP protein from Persephonella marina EX-H1 (PmGH) (from UniProt C0QQ26 2-363) (enzyme),stoichiometry N,[4],2
Nc1nc2c(ncn2[C@@H]2O[C@H](COP(=O)(O)O)[C@@H](O)[C@H]2O)c(=O)[nH]1 [GMP],"X-ray crystal structure (crystal soak), 2.55 A",[5],Crystal soaks with GMP and c‐di‐GMP gave identical structures of PmGH in complex with GMP
